Measurements: US5840684A, “Glycopeptide antibiotic derivatives” (Eli Lilly and Company, priority 1995, dated 1998)
Values after ≈ are worked out from the molar mass of the structure shown.

How the values were obtained:
[1] = test system: Stapylococcus aureus; experiment: mouse protection, experimentally-induced infection; type: in vivo; details: mice infected with Stapylococcus aureus, two doses
[2] = test system: vancomycin-susceptible enterococci; experiment: broth micro-dilution, mean geometric MIC; type: cell-based, Enterococcus faecium and Enterococcus faecalis; details: enterococci, 24-hour incubation
[3] = test system: Lactobacillus confusus; experiment: agar dilution MIC, lactic acid bacteria; type: cell-based; details: Lactobacillus confusus, brain-heart infusion agar
[4] = test system: vancomycin-resistant enterococci; experiment: broth micro-dilution, mean geometric MIC; type: cell-based, Enterococcus faecium and Enterococcus faecalis; details: enterococci, 24-hour incubation
[5] = test system: Staphylococcus epidermidis 270; experiment: broth micro-dilution MIC; type: cell-based
Protocol: (§1) The formula I compounds have in vitro and in vivo activity against Gram-positive pathogenic bacteria. The MIC's were determined using a standard broth micro-dilution assay.

[6] = test system: Staphylococcus haemolyticus 105; experiment: broth micro-dilution MIC; type: cell-based
Protocol: as §1

[7] = test system: Staphylococcus haemolyticus 415; experiment: broth micro-dilution MIC; type: cell-based
Protocol: as §1

[8] = test system: Haemophilus influenzae RD; experiment: broth micro-dilution MIC; type: cell-based; details: Haemophilus influenzae RD
Protocol: as §1

[9] = test system: Pediococcus pentosaceus; experiment: agar dilution MIC, lactic acid bacteria; type: cell-based; details: Pediococcus pentosaceus (mean of 2), brain-heart infusion agar
[10] = test system: Leuconostoc citreum; experiment: agar dilution MIC, lactic acid bacteria; type: cell-based; details: brain-heart infusion agar
[11] = test system: Leuconostoc mesenteroides; experiment: agar dilution MIC, lactic acid bacteria; type: cell-based; details: Leuconostoc mesenteroides (mean of 4), brain-heart infusion agar
[12] = test system: Leuconostoc lactis; experiment: agar dilution MIC, lactic acid bacteria; type: cell-based; details: Leuconostoc lactis (mean of 2), brain-heart infusion agar
[13] = test system: Pediococcus acidilacti; experiment: agar dilution MIC, lactic acid bacteria; type: cell-based; details: Pediococcus acidilacti (mean of 10), brain-heart infusion agar
[14] = test system: Streptococcus pneumoniae; experiment: mouse protection, experimentally-induced infection; type: in vivo; details: mice infected with Streptococcus pneumoniae, two doses
[15] = test system: Streptococcus pyogenes; experiment: mouse protection, experimentally-induced infection; type: in vivo; details: mice infected with Streptococcus pyogenes, two doses
[16] = test system: Staphylococcus aureus S13E; type: cell-based
Protocol: (§2) The MIC's were determined using a standard broth micro-dilution assay.

[17] = test system: Staphylococcus aureus X400; experiment: broth micro-dilution MIC; type: cell-based
Protocol: as §2

[18] = test system: Staphylococcus aureus 489; experiment: broth micro-dilution MIC; type: cell-based
Protocol: as §2

[19] = test system: Entercoccus faecium 180-1; experiment: broth micro-dilution MIC; type: cell-based
Protocol: as §2

[20] = test system: Staphylococcus aureus 446; experiment: broth micro-dilution MIC; type: cell-based
Protocol: as §2

[21] = test system: Staphylococcus aureus 447; experiment: broth micro-dilution MIC; type: cell-based
Protocol: as §2

[22] = test system: Entercoccus faecium 276; experiment: broth micro-dilution MIC; type: cell-based
Protocol: as §2

[23] = test system: Staphylococcus aureus SA1199; experiment: broth micro-dilution MIC; type: cell-based
Protocol: as §2

[24] = test system: Staphylococcus aureus SA1199A; experiment: broth micro-dilution MIC; type: cell-based
Protocol: as §2

[25] = test system: Staphylococcus aureus X778; experiment: broth micro-dilution MIC; type: cell-based
Protocol: as §2

[26] = test system: Leuconostoc pseudomesenteroides; experiment: agar dilution MIC, lactic acid bacteria; type: cell-based; details: brain-heart infusion agar
[27] = test system: Streptococcus pneumoniae P1; experiment: broth micro-dilution MIC; type: cell-based
Protocol: as §1

[28] = test system: Escherichia coli EC14; experiment: broth micro-dilution MIC; type: cell-based
Protocol: as §1

[29] = test system: Entercoccus faecium 2041; experiment: broth micro-dilution MIC; type: cell-based; details: Entercoccus faecium 2041
Protocol: as §1

[30] = test system: Enterococcus gallinarum 245; experiment: broth micro-dilution MIC; type: cell-based; details: Enterococcus gallinarum 245
Protocol: as §1

[31] = test system: Entercoccus faecium 180; experiment: broth micro-dilution MIC; type: cell-based; details: Entercoccus faecium 180
Protocol: as §1

[32] = test system: Staphylococcus aureus SA1199B; type: cell-based
Protocol: as §2

[33] = test system: Streptococcus pyogenes C203; experiment: broth micro-dilution MIC; type: cell-based
Protocol: as §2

MIC [12]	MIC [26]	SMILES	ED50 [1]	mean geometric MIC, Vancomycin Sensitive Strains [2]	MIC [3]	mean geometric MIC, Vancomycin Resistant Strains [4]	MIC [6]	MIC [7]	MIC [9]	MIC [10]	MIC [11]	MIC [13]	ED50 [14]	ED50 [15]	MIC [16]	MIC [17]	MIC [19]	MIC [22]	MIC [23]	MIC [24]	other results
64 µg/mL (≈ 36.1 µM)	128 µg/mL (≈ 72.1 µM)	CNC(CC(C)C)C(=O)NC1C(=O)NC(CC(N)=O)C(=O)NC2C(=O)NC3C(=O)NC(C(=O)NC(C(=O)O)c4cc(O)cc(O)c4-c4cc3ccc4O)C(OC3CC(C)(N)C(O)C(C)O3)c3ccc(c(Cl)c3)Oc3cc2cc(c3OC2OC(CO)C(O)C(O)C2OC2CC(C)(NCc3cccc(Oc4ccccc4)c3)C(O)C(C)O2)Oc2ccc(cc2Cl)C1O (stereo not shown) [Compound 49]	0.053 mg/kg/2	0.083 µg/mL	64 µg/mL (≈ 36.1 µM)	0.71 µg/mL			64 µg/mL (≈ 36.1 µM)	128 µg/mL (≈ 72.1 µM)	64 µg/mL (≈ 36.1 µM)	55 µg/mL (≈ 31 µM)	< 0.031 mg/kg/2	0.045 mg/kg/2							
64 µg/mL (≈ 36.1 µM)	128 µg/mL (≈ 72.2 µM)	CNC(CC(C)C)C(=O)NC1C(=O)NC(CC(N)=O)C(=O)NC2C(=O)NC3C(=O)NC(C(=O)NC(C(=O)O)c4cc(O)cc(O)c4-c4cc3ccc4O)C(OC3CC(C)(N)C(O)C(C)O3)c3ccc(c(Cl)c3)Oc3cc2cc(c3OC2OC(CO)C(O)C(O)C2OC2CC(C)(NCc3ccc(Cc4ccccc4)cc3)C(O)C(C)O2)Oc2ccc(cc2Cl)C1O (stereo not shown) [Compound 50]	0.1 mg/kg/2	0.054 µg/mL	64 µg/mL (≈ 36.1 µM)	0.12 µg/mL			64 µg/mL (≈ 36.1 µM)	128 µg/mL (≈ 72.2 µM)	64 µg/mL (≈ 36.1 µM)	51 µg/mL (≈ 28.8 µM)	0.057 mg/kg/2	0.047 mg/kg/2							

The next lines start with the molecule.

SMILES	MIC [12]	MIC [26]	ED50 [1]	mean geometric MIC, Vancomycin Sensitive Strains [2]	MIC [3]	mean geometric MIC, Vancomycin Resistant Strains [4]	MIC [6]	MIC [7]	MIC [9]	MIC [10]	MIC [11]	MIC [13]	ED50 [14]	ED50 [15]	MIC [16]	MIC [17]	MIC [19]	MIC [22]	MIC [23]	MIC [24]	other results
CNC(CC(C)C)C(=O)NC1C(=O)NC(CC(N)=O)C(=O)NC2C(=O)NC3C(=O)NC(C(=O)NC(C(=O)O)c4cc(O)cc(O)c4-c4cc3ccc4O)C(OC3CC(C)(N)C(O)C(C)O3)c3ccc(c(Cl)c3)Oc3cc2cc(c3OC2OC(CO)C(O)C(O)C2OC2CC(C)(NCc3ccc4c(c3)Cc3ccccc3-4)C(O)C(C)O2)Oc2ccc(cc2Cl)C1O (stereo not shown) [Compound 32]	16 µg/mL (≈ 9.04 µM)		0.055 mg/kg/2	0.089 µg/mL	16 µg/mL (≈ 9.04 µM)	0.50 µg/mL	4 µg/mL (≈ 2.26 µM)	4 µg/mL (≈ 2.26 µM)	16 µg/mL (≈ 9.04 µM)	64 µg/mL (≈ 36.1 µM)	16 µg/mL (≈ 9.04 µM)	12.1 µg/mL (≈ 6.83 µM)	0.039 mg/kg/2	0.034 mg/kg/2	1 µg/mL (≈ 0.565 µM)	0.5 µg/mL (≈ 0.282 µM)	≤ 0.06 µg/mL	0.125 µg/mL (≈ 0.0706 µM)	1 µg/mL (≈ 0.565 µM)	≤ 0.06 µg/mL	MIC [5]: 1 µg/mL (≈ 0.565 µM); MIC [8]: > 64 µg/mL; MIC [18]: 1 µg/mL (≈ 0.565 µM); MIC [20]: 1 µg/mL (≈ 0.565 µM); MIC [21]: 0.5 µg/mL (≈ 0.282 µM); MIC [25]: 0.5 µg/mL (≈ 0.282 µM)
CNC(CC(C)C)C(=O)NC1C(=O)NC(CC(N)=O)C(=O)NC2C(=O)NC3C(=O)NC(C(=O)NC(C(=O)O)c4cc(O)cc(O)c4-c4cc3ccc4O)C(OC3CC(C)(N)C(O)C(C)O3)c3ccc(c(Cl)c3)Oc3cc2cc(c3OC2OC(CO)C(O)C(O)C2OC2CC(C)(NCc3ccc(SC)cc3)C(O)C(C)O2)Oc2ccc(cc2Cl)C1O (stereo not shown) [Compound 41]	91 µg/mL (≈ 52.6 µM)	> 128 µg/mL		0.21 µg/mL	64 µg/mL (≈ 37 µM)	0.84 µg/mL			91 µg/mL (≈ 52.6 µM)	> 128 µg/mL	91 µg/mL (≈ 52.6 µM)	71 µg/mL (≈ 41.1 µM)	0.087 mg/kg/2	0.082 mg/kg/2							
CNC(CC(C)C)C(=O)NC1C(=O)NC(CC(N)=O)C(=O)NC2C(=O)NC3C(=O)NC(C(=O)NC(C(=O)O)c4cc(O)cc(O)c4-c4cc3ccc4O)C(OC3CC(C)(N)C(O)C(C)O3)c3ccc(c(Cl)c3)Oc3cc2cc(c3OC2OC(CO)C(O)C(O)C2OC2CC(C)(NCc3ccc(OC4CCCCC4)cc3)C(O)C(C)O2)Oc2ccc(cc2Cl)C1O (stereo not shown) [Compound 124]	16 µg/mL (≈ 8.99 µM)	64 µg/mL (≈ 35.9 µM)		0.047 µg/mL	16 µg/mL (≈ 8.99 µM)	0.84 µg/mL	2 µg/mL (≈ 1.12 µM)	1 µg/mL (≈ 0.562 µM)	16 µg/mL (≈ 8.99 µM)	64 µg/mL (≈ 35.9 µM)	16 µg/mL (≈ 8.99 µM)	20 µg/mL (≈ 11.2 µM)	0.041 mg/kg/2	0.092 mg/kg/2	≤ 0.06 µg/mL	1 µg/mL (≈ 0.562 µM)	≤ 0.06 µg/mL	≤ 0.06 µg/mL	1 µg/mL (≈ 0.562 µM)	≤ 0.06 µg/mL	MIC [27]: ≤ 0.06 µg/mL; MIC [28]: > 64 µg/mL; MIC [29]: ≤ 0.06 µg/mL; MIC [30]: 1 µg/mL (≈ 0.562 µM); MIC [8]: 16 µg/mL (≈ 8.99 µM); MIC [31]: ≤ 0.06 µg/mL; MIC [32]: ≤ 0.06 µg/mL; MIC [33]: ≤ 0.06 µg/mL; MIC [20]: 4 µg/mL (≈ 2.25 µM); MIC [25]: 0.5 µg/mL (≈ 0.281 µM)
CN[C@H](CC(C)C)C(=O)N[C@H]1C(=O)N[C@@H](CC(N)=O)C(=O)N[C@H]2C(=O)N[C@H]3C(=O)N[C@H](C(=O)N[C@H](C(=O)O)c4cc(O)cc(O)c4-c4cc3ccc4O)[C@H](O[C@H]3C[C@](C)(N)[C@@H](O)[C@H](C)O3)c3ccc(c(Cl)c3)Oc3cc2cc(c3O[C@@H]2O[C@H](CO)[C@@H](O)[C@H](O)[C@H]2O[C@H]2C[C@](C)(N)[C@@H](O)[C@H](C)O2)Oc2ccc(cc2Cl)[C@H]1O [Compound A82846B, A82846B, reference compound]		> 256 µg/mL	0.25 mg/kg/2	0.22 µg/mL	> 256 µg/mL	29 µg/mL	1 µg/mL (≈ 0.628 µM)	4 µg/mL (≈ 2.51 µM)	> 256 µg/mL	> 256 µg/mL	> 256 µg/mL	141 µg/mL (≈ 88.5 µM)	0.18 mg/kg/2	0.12 mg/kg/2	0.125 µg/mL (≈ 0.0785 µM)	0.125 µg/mL (≈ 0.0785 µM)	0.125 µg/mL (≈ 0.0785 µM)	0.125 µg/mL (≈ 0.0785 µM)	0.125 µg/mL (≈ 0.0785 µM)	≤ .06 µg/mL	MIC [31]: 8 µg/mL (≈ 5.02 µM); MIC [32]: 0.125 µg/mL (≈ 0.0785 µM); MIC [18]: ≤ .06 µg/mL; MIC [25]: 0.125 µg/mL (≈ 0.0785 µM)
